From BindingDB's records for patent US20240226096 (Poseidon Innovation 1, 2024) come the findings set out here.

pIC50: −log10 of the molar value.

This assay addresses T1, Bromodomain-containing protein 4 [368-440] (Homo sapiens, UniProt O60885).
T1 construct: 368-440
Description: BET BRD Assay. Here is the method: 3x Complete Substrate plus Inhibitor Solution in Assay Medium (Opti-MEM I Reduced Serum Medium, no phenol red, and no serum) was prepared just before measuring BRET. This solution consisted of a 1:166 dilution of NanoBRET Nano-Glo Substrate plus a 1:500 dilution of Extracellular NanoLuc Inhibitor in Assay Medium. For a 96-well plate, 30 ul of NanoBRET Nano-Glo Substrate, 10 ul of Extracellular NanoLuc Inhibitor and 4,960 ul of Assay Medium were mixed to produce 5 ml of 3x Complete Substrate plus Inhibitor Solution, followed with gently mixing by inversion 5-10 times in a conical tube. (The final concentration of Extracellular NanoLuc Inhibitor in the 3x solution was 60 uM, for a working concentration of 20 uM. Use 3x Complete Substrate plus Inhibitor Solution within 2 hours. Discard any remaining solution). […] Donor emission wavelength (e.g., 450 nm) and acceptor emission wavelength (e.g., 610 nm) were measured by using the GloMax Discover System or other NanoBRET Assay-compatible luminometer (it is recommended measuring BRET within 10 minutes after adding NanoBRET Nano-Glo Substrate plus Extracellular NanoLuc Inhibitor Solution. However, BRET can be measured for up to 2 hours, but there will be some loss of luminescence signal). […]

What is called pIC50 is the IC50 on a negative log10 scale, so that one unit is a factor of ten. Read a low pIC50 as a large IC50. As to `Cc1cc(-c2ccc(-n3ccn(C)c3=O)c(Cl)c2)c(O)c(-c2cccc(N3CCN(C(C)(C)C)CC3)c2)n1` [US20240226096, Example I-2], the pIC50 was 7.99.
